Assay results reported in ChEMBL document CHEMBL1121597, “Synthesis and some pharmacological properties of [8-L-tryptophan]oxytocin” (1980).
Positions of bridges follow the written chain, without caps; N, C: chain ends. Residues, ends and D or L forms follow the SMILES beside them.

Legend:
[1] = tested on: Rattus norvegicus; test: Compound was evaluated for the vasopressor activity when injected intravenously into anesthetized rats pretreated with phenoxybenzamine; type: functional
[2] = tested on: Rattus norvegicus; test: Compound was evaluated for the intrauterine pressure assayed by intravenous injection into anesthetized rats pretreated with diethylstilbestrol; type: functional

`CC[C@H](C)[C@@H]1NC(=O)[C@H](Cc2ccc(O)cc2)NC(=O)[C@@H](N)CSSC[C@@H](C(=O)N2CCC[C@H]2C(=O)N[C@@H](Cc2c[nH]c3ccccc23)C(=O)NCC(N)=O)NC(=O)[C@H](CC(N)=O)NC(=O)[C@H](CCC(N)=O)NC1=O` (H-CYIQNCPWG-NH2; disulfide 1-6) gave an Activity [1] of under 0.25 U mg-1 and an Activity [2] of 50 U mg-1.
